Experimental data reported in patent US20100310541A1, “Compositions and Methods for Reducing the Toxicity of Certain Toxins” (IRONWOOD PHARMACEUTICALS, INC., priority 2007, published 2010).
“Also recorded” adds a separate entry of the source.

Biological target: Escherichia coli heat stable enterotoxin (STa; SEQ ID NO: 1) (Escherichia coli, UniProt P07965)
Type: biochemical
Details: pH 8

With `O[C@H](CS)[C@H](O)CS` (racemic) [DTT, dithiothreitol] the “effect on SEQ ID NO:1 (LC/MS, FIG. 3)” value was “no visible effect”, the “reduction of SEQ ID NO:1 disulfide bonds (FIG. 5)” value was “a small amount of fully reduced peptide; also recorded: complete reduction” and the “reduction of native SEQ ID NO:1 based on peak area (FIG. 4)” value was 47%.
